Measured values as given in patent US20230116196A1, “METHOD OF TREATING CNS DISORDERS WITH NEU[…] GABAERGIC COMPOUNDS” (priority 2017, published 2023).

Legend:
[1] = target: T1, α4β3δ GABAA receptors (Homo sapiens, UniProt O14764+P28472+P48169); experiment: Whole-cell patch clamp: potentiation of GABA EC20 currents at recombinant α4β3δ GABAA receptors; assay type: cell-based
T1 construct: expressed in transfected cells; host or cells: CHO cells, transiently transfected (Lipofectamine)
Procedure: Cellular electrophysiology was used to measure the pharmacological properties of ALLO, ganaxolone and SGE-516 in heterologous cell systems. Compounds were tested for their ability to affect GABA mediated currents at a submaximal agonist dose (GABA EC20=2 μM).
LTK cells were stably transfected with the α1β2γ2 subunits of the GABA receptor and CHO cells are transiently transfected with the α4β3γ subunits via the Lipofecatamine method. Cells were passaged at a confluence of about 50-80% and then seeded onto 35 mm sterile culture dishes containing 2 ml culture complete medium without antibiotics or antimycotics. Cells were cultivated at a density that enabled the recording of single cells without visible connections to other cells.
Whole-cell currents were measured with HEKA EPC-10 amplifiers using PatchMaster software. Bath solution for all experiments contained (in mM): NaCl 137, KCl 4, CaCl2 1.8, MgCl2 1, HEPES 10, D-Glucose 10, pH 7.4 with NaOH. Intracellular (pipette) solution contained (in mM): KCl 130, MgCl2 1, Mg-ATP 5, HEPES 10, EGTA 5, pH 7.2 with KOH. During experiments, cells and solutions were maintained at room temperature (19° C.-30° C.). For manual patchclamp recordings, cell culture dishes were placed on the dish holder of the microscope and continuously perfused (1 ml/min) with bath solution. After formation of a Gigaohm seal between the patch electrode and the cell (pipette resistance range: 2.5 MΩ-6.0MΩ; seal resistance range: >1 GΩ) the cell membrane across the pipette tip was ruptured to assure electrical access to the cell interior (whole-cell patch configuration).
Cells were voltage-clamped at a holding potential of −80 mV. GABAA receptors were activated by 2 μM GABA and compounds were sequentially applied at increasing concentrations for 30 s prior to a 2 s application of GABA. GABA and compounds were applied to cells via the Dynaflow perfusion system (Cellectricon, Sweden). Test compounds were dissolved in DMSO to form 10 mM stock solution and serially diluted to 0.01, 0.1, 1, and 10 μM in bath solution. There was no effect on GABA currents when DMSO was applied to cells at its maximal concentration in solution (0.1%). All concentrations of test compound were tested on each cell. The relative percentage potentiation was defined as the peak amplitude in response to GABA EC20 in the presence of test compound divided by the peak amplitude in response to GABA EC20 alone, multiplied by 100.
ALLO and ganaxolone are known PAMs of both synaptic and extrasynaptic GABAAR-mediated currents. The ability of candidate compound SGE-516 to act as a PAM was compared to ALLO and ganaxolone using the whole-cell recordings of recombinant human GABAA receptors expressed in mammalian cells. The α1β2γ2 or α4β3δ subunit combinations were chosen as representatives of typical synaptic and extrasynaptic GABAA receptors respectively. Similar to previous reports (Botella et al., 2015), ALLO, ganaxolone and SGE-516 allosterically potentiated currents induced by EC20 concentration of GABA in a concentration-dependent manner in both synaptic- and extrasynaptic-type GABAARs.

[2] = tested on: dentate gyrus granule cells (DGGCs); experiment: Acute NAS exposure: tonic current in DGGCs of hippocampal slices; assay type: cell-based, mouse; details: 100 nM, 10 min acute exposure; mean±SEM
Procedure: Brain slices were prepared from 3- to 5-week-old male C57 mice. Mice were anesthetized with isoflurane, decapitated, and brains were rapidly removed and submerged in ice-cold cutting solution containing (mM): 126 NaCl, 2.5 KCl, 0.5 CaCl2, 2 MgCl2, 26 NaHCO3, 1.25 NaH2PO4, 10 glucose, 1.5 sodium pyruvate, and 3 kynurenic acid. Coronal 310 μm thick slices were cut with the vibratome VT1000S (Leica Microsystems, St Louis, Mo., USA). The slices were then transferred into incubation chamber filled with prewarmed (31-32° C.) oxygenated artificial cerebro-spinal fluid (ACSF) of the following composition (in mM): 126 NaCl, 2.5 KCl, 2 CaCl2, 2 MgCl2, 26 NaHCO3, 1.25 NaH2PO4, 10 glucose, 1.5 sodium pyruvate, 1 glutamine, 3 kynurenic acid and 0.005 GABA bubbled with 95% O2-5% CO2. Slices were allowed to recover at 32° C. for at least 1 hr before recording. Exogenous GABA was added in an attempt to standardize ambient GABA in the slice and provide an agonist source for newly inserted extrasynaptic GABAARs. […]
Whole-cell currents were recorded from the dentate gyrus granule cells (DGGCs) in 310-μm-thick coronal hippocampal slices. […] A 5 min period for stabilization after obtaining the whole-cell recording conformation (holding potential of −60 mV) was allowed before currents were recorded using an Axopatch 200B amplifier (Molecular Devices), low-pass filtered at 2 kHz, digitized at 20 kHz (Digidata 1440A; Molecular Devices), and stored for offline analysis.
For tonic current measurements, an all-points histogram was plotted for a 10 s period before and during 100 μM picrotoxin application, once the response reached a plateau level. […] Series resistance and whole-cell capacitance were continually monitored and compensated throughout the course of the experiment. […] Spontaneous inhibitory post-synaptic currents (sIPSCs) were analyzed using the mini-analysis software (version 5.6.4; Synaptosoft, Decatur, Ga.). […] Only recordings with a minimum of 200 events fitting these criteria were analyzed. sIPSCs amplitude, and frequency from each experimental condition was pooled and expressed as mean±SEM. […]

[3] = potentiation of current at GABA EC20 (2 μM), n = 3

T1 sequence (P48169 36-554): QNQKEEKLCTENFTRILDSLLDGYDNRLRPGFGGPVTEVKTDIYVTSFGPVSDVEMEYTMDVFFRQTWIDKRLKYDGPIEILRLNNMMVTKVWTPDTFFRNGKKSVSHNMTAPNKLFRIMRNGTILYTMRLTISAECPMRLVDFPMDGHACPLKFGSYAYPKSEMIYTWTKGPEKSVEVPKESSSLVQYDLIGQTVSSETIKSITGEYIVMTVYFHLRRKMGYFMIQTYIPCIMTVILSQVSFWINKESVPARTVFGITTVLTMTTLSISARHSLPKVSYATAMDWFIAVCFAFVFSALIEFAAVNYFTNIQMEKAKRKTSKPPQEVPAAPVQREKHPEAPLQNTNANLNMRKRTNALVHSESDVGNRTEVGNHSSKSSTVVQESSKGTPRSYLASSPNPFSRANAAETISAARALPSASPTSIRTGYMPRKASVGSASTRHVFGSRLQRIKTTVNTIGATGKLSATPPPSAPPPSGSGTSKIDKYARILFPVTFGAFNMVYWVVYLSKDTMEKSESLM
T1 sequence (P28472 26-473): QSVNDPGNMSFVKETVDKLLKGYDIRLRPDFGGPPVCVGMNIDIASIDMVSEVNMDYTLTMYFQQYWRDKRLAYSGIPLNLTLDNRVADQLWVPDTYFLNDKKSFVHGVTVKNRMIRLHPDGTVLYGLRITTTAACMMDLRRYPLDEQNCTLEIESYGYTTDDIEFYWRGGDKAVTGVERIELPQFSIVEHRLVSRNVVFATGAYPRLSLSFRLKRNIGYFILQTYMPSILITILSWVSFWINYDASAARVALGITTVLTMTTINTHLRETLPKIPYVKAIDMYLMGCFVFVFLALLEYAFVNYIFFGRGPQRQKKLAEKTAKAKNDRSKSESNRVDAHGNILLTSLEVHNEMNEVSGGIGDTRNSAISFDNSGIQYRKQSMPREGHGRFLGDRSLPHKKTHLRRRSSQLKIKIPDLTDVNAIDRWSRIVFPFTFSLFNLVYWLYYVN
T1 sequence (O14764 25-452): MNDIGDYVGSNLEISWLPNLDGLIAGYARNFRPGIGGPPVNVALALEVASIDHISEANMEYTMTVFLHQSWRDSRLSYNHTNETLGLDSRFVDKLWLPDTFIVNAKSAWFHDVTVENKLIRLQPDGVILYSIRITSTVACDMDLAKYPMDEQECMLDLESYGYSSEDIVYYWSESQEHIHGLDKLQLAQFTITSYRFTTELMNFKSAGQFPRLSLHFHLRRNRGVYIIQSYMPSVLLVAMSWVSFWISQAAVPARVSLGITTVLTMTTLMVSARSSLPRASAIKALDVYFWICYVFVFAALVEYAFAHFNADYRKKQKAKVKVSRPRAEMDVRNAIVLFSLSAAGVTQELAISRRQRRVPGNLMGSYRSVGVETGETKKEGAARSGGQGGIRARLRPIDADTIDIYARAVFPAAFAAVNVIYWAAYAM

SMILES	EC50 [1, 3]	Emax ± S.E.M., α4β3δ ([1]; relative percentage potentiation of GABA EC20 current)	tonic current during acute exposure [2]	pEC50 ± S.E.M., α4β3δ [1, 3]
C[C@@]1(O)CC[C@@]2(C)[C@H](CC[C@@H]3[C@@H]2CC[C@]2(C)[C@@H](C(=O)Cn4nccn4)CC[C@@H]32)C1 [SGE-516]	193 nM	505 ± 19%	49.2±8.9 pA	–
CC(=O)[C@H]1CC[C@H]2[C@@H]3CC[C@H]4C[C@H](O)CC[C@]4(C)[C@H]3CC[C@]12C [ALLO, Allopregnanolone]	–	–	58.3±13.0 pA	7.2 ± 0.3
CC(=O)[C@H]1CC[C@H]2[C@@H]3CC[C@H]4C[C@](C)(O)CC[C@]4(C)[C@H]3CC[C@]12C [Ganaxolone]	–	–	78.8±23.2 pA	7.0 ± 0.1
